Results as given in PubChem BioAssay (NCI).
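Grown in 96-well plates, cells were treated for 48 hours with each compound at five concentrations. Insufficient inhibition: endpoint recorded as highest concentration tested. The concentration for full growth arrest is given as TGI.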

Columns and labels:
Test in all cases: inhibition of tumour cell growth, NCI panel, 48 h
NCI-H23 lung = tested on: NCI-H23 lung
MDA-MB-231 breast = tested on: MDA-MB-231 breast
HOP-62 NSCLC = tested on: HOP-62 NSCLC
SF-268 CNS = tested on: SF-268 CNS
CAKI-1 renal = tested on: CAKI-1 renal
ACHN renal = tested on: ACHN renal
MDA-MB-435 = tested on: MDA-MB-435
SN12C renal = tested on: SN12C renal
KM12 colon = tested on: KM12 colon
IGROV1 ovarian = tested on: IGROV1 ovarian
HOP-92 NSCLC = tested on: HOP-92 NSCLC
T-47D breast = tested on: T-47D breast
HL-60(TB) leukemia = tested on: HL-60(TB) leukemia
786-0 renal = tested on: 786-0 renal
SK-OV-3 ovarian = tested on: SK-OV-3 ovarian
HCT-116 colon = tested on: HCT-116 colon
NCI-H226 lung = tested on: NCI-H226 lung

Measured: TGI

O=C1Nc2cc([N+](=O)[O-])ccc2C(=O)N2CCC[C@@H]12
> 100 µM: all assays above
